The test system of one data set is NCI-H460. The data set is described as follows: Antiproliferative activity against human NCI-H460 cells by CCK8 assay. Background: Formazan colour is commonly taken as a measure of viable cells.
For a further data set, the system named is MCF7. The data set is described as follows: Antiproliferative activity against human MCF7 cells by CCK8 assay.
The subject of the next data set is MDA-MB-231. The data set is described as follows: Antiproliferative activity against human MDA-MB-231 cells by CCK8 assay.
Another data set deals with A549. The data set is described as follows: cells. To be noted: Homo sapiens.
Data set [1] can be described thus: Antiproliferative activity against human L02 cells by CCK8 assay. It counts as toxicity, cell-based.
The nature of data set [2]: Antiproliferative activity against human MCF-10A cells by CCK8 assay. In kind it is toxicity, cell-based.
The nature of data set [3]: Selectivity index, ratio of IC50 for antiproliferative activity against human L02 cells to IC50 for antiproliferative activity against human A549 cells. It counts as toxicity, cell-based. The settings on record: L02 cells and A549 cells, read-out: Ratio IC50.
Data set [4] can be described thus: Selectivity index, ratio of IC50 for antiproliferative activity against human MCF-10A cells to IC50 for antiproliferative activity against human MCF7 cells. In kind it is toxicity, cell-based. To be noted: MCF-10A cells and MCF7 cells, read-out: Ratio IC50.

As a reminder, the IC50 is the concentration that inhibits the measured activity by half. A low value points to greater potency.

Description for A549: Antiproliferative activity against human A549 cells by CCK8 assay

With `CCOP(=O)(OCC)C(Nc1ccc(CC(=O)Oc2cc(/C=C/C(=O)c3ccc(OC)c4c3OC(C)(C)C=C4)ccc2OC)cc1)c1cccc(F)c1` (stereo not given), the IC50 in the data set on NCI-H460 came out at 374 nM; in the data set with MCF7 it was 423 nM; in the data set with MDA-MB-231 it was 544 nM; in the data set on A549, 288 nM.

In the case of `CCOP(=O)(OCC)C(Nc1ccc(CC(=O)Oc2cc(/C=C/C(=O)c3cc(OC)c(OC)c(OC)c3)ccc2OC)cc1)c1cccc(C)c1` (stereo not given), the IC50 was 385 nM with NCI-H460, 414 nM in the data set with MCF7, 574 nM with MDA-MB-231 and 309 nM in the data set with A549.

For the compound `COc1ccc(/C=C/C(=O)c2ccc(OC)c3c2OC(C)(C)C=C3)cc1O`, the IC50 turned out to be 1070 nM with NCI-H460, 1150 nM with MCF7, 1040 nM in the data set on MDA-MB-231 and 1220 nM with A549.

For `CCOP(=O)(OCC)C(Nc1ccc(CC(=O)Oc2cc(/C=C/C(=O)c3cc(OC)c(OC)c(OC)c3)ccc2OC)cc1)c1cccc(OC)c1` (stereo not given), the IC50 with NCI-H460 was 465 nM; in the data set with MCF7, 667 nM; in the data set on MDA-MB-231, 721 nM; in the data set on A549, 379 nM.

Consider `COc1cccc2c1C(=O)c1c(O)c3c(c(O)c1C2=O)C[C@@](O)(C(=O)CO)C[C@@H]3O[C@H]1C[C@H](N)[C@H](O)[C@H](C)O1` [DOXORUBICIN], for which the values for the IC50 in data set [1] and in data set [2] were 1320 nM and 973 nM, respectively.

On to `CCOP(=O)(OCC)C(Nc1ccc(CC(=O)Oc2cc(/C=C/C(=O)c3ccc(OC)c4c3OC(C)(C)C=C4)ccc2OC)cc1)c1ccc([N+](=O)[O-])cc1` (stereo not given), for which the IC50 is 469 nM in the data set with NCI-H460, 554 nM in the data set with MCF7, 643 nM in the data set with MDA-MB-231 and 368 nM in the data set with A549.

Take `CCOP(=O)(OCC)C(Nc1ccc(CC(=O)Oc2cc(/C=C/C(=O)c3ccc(OC)c4c3OC(C)(C)C=C4)ccc2OC)cc1)c1cccc([N+](=O)[O-])c1` (stereo not given): the IC50 in the data set with NCI-H460 is 299 nM; in the data set with MCF7, 332 nM; in the data set on MDA-MB-231, 454 nM; in the data set with A549, 206 nM.

Take `COc1ccc(/C=C/C(=O)c2ccc(OC)c3c2OC(C)(C)C=C3)cc1` [MILLEPACHINE]: the concentration for half-maximal inhibition (IC50) in the data set on NCI-H460 turned out to be 7910 nM; with MCF7, 5620 nM; in the data set with MDA-MB-231, 4290 nM; in the data set with A549 it was 5940 nM.

Take `CCOP(=O)(OCC)C(Nc1ccc(CC(=O)Oc2cc(/C=C/C(=O)c3cc(OC)c(OC)c(OC)c3)ccc2OC)cc1)c1ccc(OC)cc1` (stereo not given): the IC50 with NCI-H460 was determined as 658 nM; in the data set on MCF7 it was 752 nM; in the data set with MDA-MB-231, 834 nM; with A549, 545 nM.

For the compound `CCOP(=O)(OCC)C(Nc1ccc(CC(=O)Oc2cc(/C=C/C(=O)c3cc(OC)c(OC)c(OC)c3)ccc2OC)cc1)c1cccc(Cl)c1` (stereo not given), the IC50 with NCI-H460 came out at 845 nM; with MCF7, 818 nM; in the data set on MDA-MB-231, 901 nM; with A549, 649 nM.

As for `CCOP(=O)(OCC)C(Nc1ccc(CC(=O)Oc2cc(/C=C/C(=O)c3ccc(OC)c4c3OC(C)(C)C=C4)ccc2OC)cc1)c1ccc(OC)cc1` (stereo not given), the IC50 is 654 nM in the data set with NCI-H460, 801 nM in the data set on MCF7, 934 nM with MDA-MB-231 and 560 nM with A549.

Turning to `CCOP(=O)(OCC)C(Nc1ccc(CC(=O)Oc2cc(/C=C/C(=O)c3cc(OC)c(OC)c(OC)c3)ccc2OC)cc1)c1ccc([N+](=O)[O-])cc1` (stereo not given), the IC50 worked out at 423 nM in the data set with NCI-H460, 507 nM with MCF7, 570 nM in the data set with MDA-MB-231 and 328 nM with A549.

Take `CCOP(=O)(OCC)C(Nc1ccc(CC(=O)Oc2cc(/C=C/C(=O)c3cc(OC)c(OC)c(OC)c3)ccc2OC)cc1)c1cccc(F)c1` (stereo not given): the IC50 in the data set on NCI-H460 stood at 267 nM; in the data set with MCF7, 357 nM; in the data set with MDA-MB-231, 492 nM; with A549, 253 nM.

On to `CCOP(=O)(OCC)C(Nc1ccc(CC(=O)Oc2cc(/C=C/C(=O)c3cc(OC)c(OC)c(OC)c3)ccc2OC)cc1)c1ccc(Br)cc1` (stereo not given), for which the IC50 in the data set on NCI-H460 worked out at 762 nM; with MCF7 it was 872 nM; in the data set on MDA-MB-231, 939 nM; with A549, 609 nM.

For `CCOP(=O)(OCC)C(Nc1ccc(CC(=O)Oc2cc(/C=C/C(=O)c3ccc(OC)c4c3OC(C)(C)C=C4)ccc2OC)cc1)c1cccc(Cl)c1` (stereo not given), the IC50 with NCI-H460 stood at 785 nM; in the data set on MCF7, 732 nM; in the data set with MDA-MB-231, 928 nM; with A549 it was 656 nM.

In the case of `CCOP(=O)(OCC)C(Nc1ccc(CC(=O)Oc2cc(/C=C/C(=O)c3ccc(OC)c4c3OC(C)(C)C=C4)ccc2OC)cc1)c1ccc(OC)c(OC)c1` (stereo not given), the IC50 came to 731 nM with NCI-H460, 822 nM with MCF7, 936 nM with MDA-MB-231 and 608 nM in the data set with A549.

As to `CCOP(=O)(OCC)C(Nc1ccc(CC(=O)Oc2cc(/C=C/C(=O)c3ccc(OC)c4c3OC(C)(C)C=C4)ccc2OC)cc1)c1cc(OC)c(OC)c(OC)c1` (stereo not given), the IC50 with NCI-H460 is 837 nM; with MCF7 it was 915 nM; with MDA-MB-231 it was 989 nM; with A549, 769 nM.

In the case of `CCOP(=O)(OCC)C(Nc1ccc(CC(=O)Oc2cc(/C=C/C(=O)c3ccc(OC)c4c3OC(C)(C)C=C4)ccc2OC)cc1)c1ccc(C)cc1` (stereo not given), the IC50 in the data set on NCI-H460 amounted to 562 nM; in the data set on MCF7, 765 nM; in the data set with MDA-MB-231 it was 799 nM; in the data set on A549, 484 nM.

Turning to `CCOP(=O)(OCC)C(Nc1ccc(CC(=O)Oc2cc(/C=C/C(=O)c3ccc(OC)c4c3OC(C)(C)C=C4)ccc2OC)cc1)c1ccc(Br)cc1` (stereo not given), the IC50 in the data set on NCI-H460 came to 780 nM; in the data set on MCF7 it was 829 nM; in the data set on MDA-MB-231, 959 nM; in the data set with A549, 741 nM.

With `CCOP(=O)(OCC)C(Nc1ccc(CC(=O)Oc2cc(/C=C/C(=O)c3cc(OC)c(OC)c(OC)c3)ccc2OC)cc1)c1cc(OC)c(OC)c(OC)c1` (stereo not given), the IC50 with NCI-H460 came out at 840 nM; with MCF7 it was 915 nM; in the data set with MDA-MB-231, 952 nM; in the data set with A549 it was 712 nM.

In the case of `CCOP(=O)(OCC)C(Nc1ccc(CC(=O)Oc2cc(/C=C/C(=O)c3ccc(OC)c4c3OC(C)(C)C=C4)ccc2OC)cc1)c1ccc(Cl)cc1` (stereo not given), the IC50 in the data set on NCI-H460 stood at 758 nM; with MCF7 it was 808 nM; with MDA-MB-231 it was 978 nM; with A549, 709 nM.

With `CC(=O)O[C@H]1C(=O)[C@@]2(C)[C@H]([C@H](OC(=O)c3ccccc3)[C@]3(O)C[C@H](OC(=O)[C@H](O)[C@@H](NC(=O)c4ccccc4)c4ccccc4)C(C)=C1C3(C)C)[C@]1(OC(C)=O)CO[C@@H]1C[C@@H]2O` [PACLITAXEL], the IC50 was determined as 155 nM with NCI-H460; 122 nM with MCF7; 208 nM in the data set on MDA-MB-231; 95 nM in data set [1]; 114 nM in data set [2]; 109 nM with A549. The selectivity ratio in data set [3] was 0.87; in data set [4], 0.93.

Consider `CCOP(=O)(OCC)C(Nc1ccc(CC(=O)Oc2cc(/C=C/C(=O)c3cc(OC)c(OC)c(OC)c3)ccc2OC)cc1)c1ccccc1` (stereo not given), for which the half-inhibitory concentration (IC50) in the data set with NCI-H460 is 704 nM; with MCF7 it was 828 nM; with MDA-MB-231 it was 940 nM; in the data set on A549 it was 632 nM.

As to `CCOP(=O)(OCC)C(Nc1ccc(CC(=O)Oc2cc(/C=C/C(=O)c3cc(OC)c(OC)c(OC)c3)ccc2OC)cc1)c1ccc(OC)c(OC)c1` (stereo not given), the IC50 was found to be 739 nM with NCI-H460, 806 nM in the data set on MCF7, 893 nM with MDA-MB-231 and 683 nM with A549.

As to `CCOP(=O)(OCC)C(Nc1ccc(CC(=O)Oc2cc(/C=C/C(=O)c3ccc(OC)c4c3OC(C)(C)C=C4)ccc2OC)cc1)c1ccccc1` (stereo not given), the IC50 in the data set on NCI-H460 is 698 nM; in the data set with MCF7 it was 797 nM; with MDA-MB-231, 898 nM; in the data set with A549 it was 591 nM.

Turning to `CCOP(=O)(OCC)C(Nc1ccc(CC(=O)Oc2cc(/C=C/C(=O)c3cc(OC)c(OC)c(OC)c3)ccc2OC)cc1)c1ccc(C)cc1` (stereo not given), the half-maximal inhibitory concentration (IC50) was determined as 452 nM with NCI-H460, 540 nM in the data set with MCF7, 668 nM with MDA-MB-231 and 399 nM with A549.

Regarding `CCOP(=O)(OCC)C(Nc1ccc(CC(=O)Oc2cc(/C=C/C(=O)c3ccc(OC)c4c3OC(C)(C)C=C4)ccc2OC)cc1)c1ccc(F)cc1` (stereo not given), the IC50 in the data set on NCI-H460 is 500 nM; in the data set with MCF7, 567 nM; in the data set on MDA-MB-231 it was 692 nM; in the data set with A549 it was 392 nM.

For the origin of these results see ChEMBL document CHEMBL6153074, “Discovery of novel dual tubulin and MMPs inhibitors for the treatment of lung cancer and overcoming drug resistance” (Eur J Med Chem, 2025).
